Source: US10273222B2 (CELGENE QUANTICEL RESEARCH, INC., priority 2013, dated 2019)

How the values were obtained:
Jarid1A = Jarid1A (Homo sapiens (Human), UniProt P29375); test: Jarid1A in vitro enzyme inhibition assay (TR-FRET); type: biochemical
From the text: The enzymatic assay of Jarid1A activity is based upon Time Resolved-Fluorescence Resonance Energy Transfer (TR-FRET) detection.

JMJD2C = JMJD2C (Homo sapiens (Human), UniProt Q9H3R0); test: JMJD2C in vitro enzyme inhibition assay (TR-FRET); type: biochemical
Chain of JMJD2C (Q9H3R0 2-372): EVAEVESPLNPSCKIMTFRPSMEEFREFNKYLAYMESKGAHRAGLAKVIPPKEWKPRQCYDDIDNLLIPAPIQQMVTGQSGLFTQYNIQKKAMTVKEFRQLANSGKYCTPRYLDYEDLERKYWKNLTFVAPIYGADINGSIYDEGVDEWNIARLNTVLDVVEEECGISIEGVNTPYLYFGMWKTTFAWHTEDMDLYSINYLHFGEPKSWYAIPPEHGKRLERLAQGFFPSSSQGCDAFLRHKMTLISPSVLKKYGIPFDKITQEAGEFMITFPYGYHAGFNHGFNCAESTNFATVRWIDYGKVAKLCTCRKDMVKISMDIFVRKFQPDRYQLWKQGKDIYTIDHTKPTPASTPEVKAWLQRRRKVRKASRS
Experimental: This assay determines the ability of a test compound to inhibit Jarid1A, Jarid1B, JMJD2C, and JMJD2A demethylase activity. […] Baculovirus expressed JMJD2C (GenBank Accession #BC143571, AA 2-372) was purchased from BPS Bioscience (Cat#50105).
The ability of test compounds to inhibit the activity of JMJD2C was determined in 384-well plate format under the following reaction conditions: 0.3 nM JMJD2C, 300 nM H3K9me3-biotin labeled peptide (Anaspec cat #64360), 2 μM alpha-ketoglutaric acid in assay buffer of 50 mM HEPES, pH7.3, 0.005% Brij35, 0.5 mM TCEP, 0.2 mg/ml BSA, 50 μM sodium L-ascorbate, and 2 μM ammonium iron(II) sulfate. Reaction product was determined quantitatively by TR-FRET after the addition of detection reagent Phycolink Streptavidin-allophycocyanin (Prozyme) and Europium-anti-di-methylated histone H3 lysine 9 (H3K9me2) antibody (PerkinElmer) in the presence of 5 mM EDTA in LANCE detection buffer (PerkinElmer) at a final concentration of 50 nM and 1 nM, respectively.
The assay reaction was initiated by the following: 2 μl of the mixture of 900 nM H3K9me3-biotin labeled peptide and 6 μM alpha-ketoglutaric acid with 2 μl of 11-point serial diluted inhibitor in 3% DMSO were added to each well of the plate, followed by the addition of 2 μl of 0.9 nM JMJD2C to initiate the reaction. The reaction mixture was incubated at room temperature for 30 minutes, and terminated by the addition of 6 μl of 5 mM EDTA in LANCE detection buffer containing 100 nM Phycolink Streptavidin-allophycocyanin and 2 nM Europium-anti-H3K9me2 antibody. Plates were read by EnVisionMultilabel Reader in TR-FRET mode (excitation at 320 nm, emission at 615 nm and 665 nm) after 1 hour incubation at room temperature. A ratio was calculated (665/615) for each well and fitted to determine inhibition constant (IC50).

KDM5A and KDM5B = test: In vitro cell-based assay: tri-methyl H3K4 immuno-blotting in ZR-75-1 cells (cellular inhibition of KDM5A/B); details: ZR-75-1 breast cancer cells, 72 hours, tri-methylated H3K4 level; read-out: IC50 ZR-75-1 cell-MOA
Experimental: This quantitative immuno-blotting assay measures the amount tri-methylated histone H3 at amino acid Lysine number 4, a specific substrate and product of the direct enzymatic activity of the histone demethylases KDM5A and KDM5B from extracts of the ZR-75-1 breast cancer cell line.
This assay is a fluorometric immunoassay for the quantification of tri-methyl H3K4 extracted from cells treated with test compound and is used as a measure of the cellular inhibition of KDM5A/B.
Extracts were prepared containing all of the cellular histone material using detergent based lysis and sonication methods. These lysates were subsequently normalized for total protein content using a colorimetric bicinchonic acid assay (MicroBCA Pierce/Thermo Scientific). Normalized cell extracts were then subjected to typical immuno-blotting procedures using NuPage reagents (Life Technologies). Electrophoretically separated histones were then transferred and immobilized using polyvinylidene difluoride membrane (Immobilon-FL Millipore). The amount of tri-methylated lysine 4 of histone H3 was detected using an antibody specific to the tri-methylated state (Cell Signaling Technologies) and quantified on an infrared imager using a densitometry software package (Odyssey CLx, Image Studio, Li-Cor). This background subtracted densitometry value was reported as a ration of the GAPDH amount for that sample and then calculated as a percent of the DMSO treated sample. The software package XL-fit (IDBS) was then used to calculate a relative IC50 value for the dilution series of a given test compound according to the equation: fit=(D+((Vmax*(x^n))/((x^n)+(Km^n)))).

Jarid1B = Jarid1B (Homo sapiens (Human), UniProt Q9UGL1); test: Jarid1B in vitro enzyme inhibition assay (TR-FRET); type: biochemical
Chain of Jarid1B (Q9UGL1 2-751): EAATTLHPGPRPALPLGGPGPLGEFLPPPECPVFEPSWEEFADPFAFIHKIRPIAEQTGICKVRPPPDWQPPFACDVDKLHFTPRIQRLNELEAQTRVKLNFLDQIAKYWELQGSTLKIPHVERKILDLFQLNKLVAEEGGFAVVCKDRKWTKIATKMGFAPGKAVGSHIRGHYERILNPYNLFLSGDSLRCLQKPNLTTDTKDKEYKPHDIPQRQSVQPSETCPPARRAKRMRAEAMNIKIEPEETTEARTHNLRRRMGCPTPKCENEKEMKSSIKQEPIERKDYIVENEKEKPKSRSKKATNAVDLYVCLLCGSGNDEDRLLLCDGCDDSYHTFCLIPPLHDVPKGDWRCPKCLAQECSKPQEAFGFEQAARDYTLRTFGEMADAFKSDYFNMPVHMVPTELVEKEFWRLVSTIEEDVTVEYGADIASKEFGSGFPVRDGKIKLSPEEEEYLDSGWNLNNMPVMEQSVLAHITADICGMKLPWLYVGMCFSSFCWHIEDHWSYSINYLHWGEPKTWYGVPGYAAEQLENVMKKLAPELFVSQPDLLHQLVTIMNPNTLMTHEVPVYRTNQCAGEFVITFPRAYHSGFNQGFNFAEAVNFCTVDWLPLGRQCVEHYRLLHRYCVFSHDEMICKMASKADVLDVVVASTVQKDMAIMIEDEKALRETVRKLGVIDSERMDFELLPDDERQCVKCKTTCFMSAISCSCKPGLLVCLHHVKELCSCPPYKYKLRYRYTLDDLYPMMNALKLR
Experimental: This assay determines the ability of a test compound to inhibit Jarid1A, Jarid1B, JMJD2C, and JMJD2A demethylase activity.
The ability of test compounds to inhibit the activity of Jarid1B was determined in 384-well plate format under the following reaction conditions: 0.8 nM Jarid1B, 300 nM H3K4me3-biotin labeled peptide (Anaspec cat #64357), 2 μM alpha-ketoglutaric acid in assay buffer of 50 mM HEPES, pH7.3, 0.005% Brij35, 0.5 mM TCEP, 0.2 mg/ml BSA, 50 μM sodium L-ascorbate, and 2 μM ammonium iron(II) sulfate. Reaction product was determined quantitatively by TR-FRET after the addition of detection reagent Phycolink Streptavidin-allophycocyanin (Prozyme) and Europium-anti-mono- or di-methylated histone H3 lysine 4 (H3K4me1-2) antibody (PerkinElmer) in the presence of 5 mM EDTA in LANCE detection buffer (PerkinElmer) at a final concentration of 25 nM and 1 nM, respectively.
The assay reaction was initiated by the following: 2 μl of the mixture of 900 nM H3K4me3-biotin labeled peptide and 6 μM alpha-ketoglutaric acid with 2 μl of 11-point serial diluted inhibitor in 3% DMSO was added to each well of the plate, followed by the addition of 2 μl of 2.4 nM Jarid1B to initiate the reaction. The reaction mixture was incubated at room temperature for 30 minutes, and terminated by the addition of 6 μl of 5 mM EDTA in LANCE detection buffer containing 50 nM Phycolink Streptavidin-allophycocyanin and 2 nM Europium-anti-H3K4me1-2 antibody. Plates were read by EnVisionMultilabel Reader in TR-FRET mode (excitation at 320 nm, emission at 615 nm and 665 nm) after 1 hour incubation at room temperature. A ratio was calculated (665/615) for each well and fitted to determine inhibition constant (IC50).

FBXL10 = FBXL10 (Homo sapiens (Human), UniProt Q8NHM5); test: FBXL10 in vitro enzyme inhibition assay (AlphaScreen); type: biochemical
Chain of FBXL10 (Q8NHM5 1-650): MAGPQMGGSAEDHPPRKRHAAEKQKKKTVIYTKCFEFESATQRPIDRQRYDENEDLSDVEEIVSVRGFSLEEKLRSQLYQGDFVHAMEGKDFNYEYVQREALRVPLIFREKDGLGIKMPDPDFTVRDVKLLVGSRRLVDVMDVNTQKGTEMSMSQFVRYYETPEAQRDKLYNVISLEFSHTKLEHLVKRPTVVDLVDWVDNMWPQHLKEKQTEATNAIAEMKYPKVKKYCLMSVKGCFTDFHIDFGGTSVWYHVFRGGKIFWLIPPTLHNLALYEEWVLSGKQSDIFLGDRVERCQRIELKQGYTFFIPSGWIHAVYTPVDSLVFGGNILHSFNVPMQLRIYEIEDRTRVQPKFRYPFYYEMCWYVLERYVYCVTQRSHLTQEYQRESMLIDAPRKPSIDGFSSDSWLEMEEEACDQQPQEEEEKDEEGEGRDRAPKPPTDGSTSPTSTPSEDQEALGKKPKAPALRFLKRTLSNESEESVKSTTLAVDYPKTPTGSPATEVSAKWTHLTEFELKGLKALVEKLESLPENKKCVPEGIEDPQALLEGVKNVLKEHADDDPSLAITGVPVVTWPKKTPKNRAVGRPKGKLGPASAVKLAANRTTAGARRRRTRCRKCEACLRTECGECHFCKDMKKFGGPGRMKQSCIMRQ
How it was run: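 AlphaScreen read-out of H3K36me1 product, detected with anti-H3K36me1 antibody plus streptavidin donor and Protein A acceptor beads (final 10 μg/ml) in 50 mM HEPES pH 7.3, 10 mM NaCl, 0.005% Brij35, 5 mM EDTA, 2 mg/ml BSA. Beads incubated 2 h to overnight at room temperature; IC50 derived from AlphaScreen signal.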

JMJD2A = JMJD2A (Homo sapiens (Human), UniProt O75164); test: JMJD2A in vitro enzyme inhibition assay (TR-FRET); type: biochemical
Chain of JMJD2A (O75164 1-350): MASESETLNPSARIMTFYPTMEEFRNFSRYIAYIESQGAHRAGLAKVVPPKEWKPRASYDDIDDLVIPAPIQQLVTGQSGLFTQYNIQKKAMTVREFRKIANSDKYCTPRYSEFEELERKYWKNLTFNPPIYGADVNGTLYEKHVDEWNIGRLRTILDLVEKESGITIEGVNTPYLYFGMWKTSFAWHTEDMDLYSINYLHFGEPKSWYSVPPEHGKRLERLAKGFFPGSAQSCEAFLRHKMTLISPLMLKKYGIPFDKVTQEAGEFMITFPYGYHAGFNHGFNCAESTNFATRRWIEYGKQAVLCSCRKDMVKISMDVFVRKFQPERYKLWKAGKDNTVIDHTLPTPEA
Experimental: This assay determines the ability of a test compound to inhibit Jarid1A, Jarid1B, JMJD2C, and JMJD2A demethylase activity. […] Baculovirus expressed JMJD2A (GenBank Accession #NM_014663, AA 1-350) was purchased from BPS Bioscience (Cat#50123).
The ability of test compounds to inhibit the activity of JMJD2A was determined in 384-well plate format under the following reaction conditions: 2 nM JMJD2A, 300 nM H3K9me3-biotin labeled peptide (Anaspec cat #64360), 2 μM alpha-ketoglutaric acid in assay buffer of 50 mM HEPES, pH7.3, 0.005% Brij35, 0.5 mM TCEP, 0.2 mg/ml BSA, 50 μM sodium L-ascorbate, and 2 μM ammonium iron(II) sulfate. Reaction product was determined quantitatively by TR-FRET after the addition of detection reagent Phycolink Streptavidin-allophycocyanin (Prozyme) and Europium-anti-di-methylated histone H3 lysine 9 (H3K9me2) antibody (PerkinElmer) in the presence of 5 mM EDTA in LANCE detection buffer (PerkinElmer) at a final concentration of 50 nM and 1 nM, respectively.
The assay reaction was initiated by the following: 2 μl of the mixture of 900 nM H3K9me3-biotin labeled peptide and 6 μM alpha-ketoglutaric acid with 2 μl of 11-point serial diluted inhibitor in 3% DMSO were added to each well of plate, followed by the addition of 2 μl of 6 nM JMJD2A to initiate the reaction. The reaction mixture was incubated at room temperature for 30 minutes, and terminated by the addition of 6 μl of 5 mM EDTA in LANCE detection buffer containing 100 nM Phycolink Streptavidin-allophycocyanin and 2 nM Europium-anti-H3K9me2 antibody. Plates were read by EnVisionMultilabel Reader in TR-FRET mode (excitation at 320 nm, emission at 615 nm and 665 nm) after 1 hour incubation at room temperature. A ratio was calculated (665/615) for each well and fitted to determine inhibition constant (IC50).

Chain of Jarid1A (P29375 1-1090): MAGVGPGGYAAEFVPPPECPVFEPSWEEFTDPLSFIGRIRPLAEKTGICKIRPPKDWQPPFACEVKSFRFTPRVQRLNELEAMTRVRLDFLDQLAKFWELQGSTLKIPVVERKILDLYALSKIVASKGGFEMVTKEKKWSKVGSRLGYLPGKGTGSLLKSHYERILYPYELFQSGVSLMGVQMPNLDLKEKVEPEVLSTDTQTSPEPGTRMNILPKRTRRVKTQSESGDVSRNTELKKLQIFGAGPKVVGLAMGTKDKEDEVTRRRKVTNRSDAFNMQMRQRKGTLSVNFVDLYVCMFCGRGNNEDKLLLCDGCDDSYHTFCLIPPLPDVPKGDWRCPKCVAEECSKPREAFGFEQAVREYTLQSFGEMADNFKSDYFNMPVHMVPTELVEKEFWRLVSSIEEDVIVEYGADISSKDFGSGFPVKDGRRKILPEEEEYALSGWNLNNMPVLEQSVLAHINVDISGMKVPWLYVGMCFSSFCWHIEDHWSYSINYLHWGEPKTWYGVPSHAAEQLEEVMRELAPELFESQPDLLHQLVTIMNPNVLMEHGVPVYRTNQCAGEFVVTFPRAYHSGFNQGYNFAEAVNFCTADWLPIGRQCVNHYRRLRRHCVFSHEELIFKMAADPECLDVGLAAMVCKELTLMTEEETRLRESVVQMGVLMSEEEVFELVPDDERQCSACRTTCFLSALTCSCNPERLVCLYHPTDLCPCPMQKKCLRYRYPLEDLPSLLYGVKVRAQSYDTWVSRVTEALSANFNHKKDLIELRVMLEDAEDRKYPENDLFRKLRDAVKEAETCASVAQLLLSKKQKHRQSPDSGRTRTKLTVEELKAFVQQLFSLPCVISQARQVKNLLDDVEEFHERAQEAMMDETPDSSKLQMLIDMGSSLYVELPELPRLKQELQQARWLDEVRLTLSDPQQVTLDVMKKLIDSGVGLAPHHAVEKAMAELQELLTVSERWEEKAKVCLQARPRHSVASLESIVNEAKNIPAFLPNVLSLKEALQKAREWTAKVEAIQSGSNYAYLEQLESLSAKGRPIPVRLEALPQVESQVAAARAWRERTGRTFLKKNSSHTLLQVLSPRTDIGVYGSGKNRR

SMILES	IC50 (Jarid1A) [nM]	IC50 (JMJD2C) [nM]	IC50 (KDM5A and KDM5B) [nM]	IC50 (Jarid1B) [nM]	IC50 (FBXL10) [nM]	IC50 (JMJD2A) [nM]
Cc1ccc(-c2c(-c3cc(C(=O)O)ccn3)ncn2C)cc1O [Example 3, 2-[5-(3-hydroxy-4-methylphenyl)-1-methyl-1H-imidazol-4-yl]pyridine-4-carboxylic acid]	≤ 100	1000 to 10000	> 10000	≤ 100	100 to 1000	
Cn1cnc(-c2cc(C(=O)O)ccn2)c1-c1ccc(C2CC2)cc1 [Example 7, 2-[5-(4-cyclopropylphenyl)-1-methyl-1H-imidazol-4-yl]pyridine-4-carboxylic acid]	≤ 100	1000 to 10000	> 10000	≤ 100	100 to 1000	
COc1ccc(-c2c(-c3cc(C(=O)O)ccn3)ncn2C)cc1 [Example 12, 2-[5-(4-methoxyphenyl)-1-methyl-1H-imidazol-4-yl]pyridine-4-carboxylic acid]			1000 to 10000			
Cn1cnc(-c2cc(C(=O)O)ccn2)c1-c1ccc(-n2cccn2)cc1 [Example 15, 2-{1-methyl-5-[4-(1H-pyrazol-1-yl)phenyl]-1H-imidazol-4-yl}pyridine-4-carboxylic acid]	≤ 100	100 to 1000	1000 to 10000	≤ 100	100 to 1000	
Cn1cnc(-c2cc(C(=O)O)ccn2)c1-c1ccc(OCC2CC2)cc1 [Example 16, 2-{5-[4-(cyclopropylmethoxy)phenyl]-1-methyl-1H-imidazol-4-yl}pyridine-4-carboxylic acid]	≤ 100	100 to 1000	1000 to 10000	≤ 100	100 to 1000	
Cn1cnc(-c2cc(C(=O)O)ccn2)c1-c1ccc(N2CCCC2)cc1 [Example 18, 2-{1-methyl-5-[4-(pyrrolidin-1-yl)phenyl]-1H-imidazol-4-yl}pyridine-4-carboxylic acid]	≤ 100	100 to 1000	1000 to 10000	≤ 100		
Cn1cnc(-c2cc(C(=O)O)ccn2)c1-c1ccc(Cl)cc1 [Example 19, 2-[5-(4-chlorophenyl)-1-methyl-1H-imidazol-4-yl]pyridine-4-carboxylic acid]	≤ 100	100 to 1000	1000 to 10000	≤ 100	≤ 100	
Cn1cnc(-c2cc(C(=O)O)ccn2)c1-c1cccc(Cl)c1 [Example 20, 2-[5-(3-chlorophenyl)-1-methyl-1H-imidazol-4-yl]pyridine-4-carboxylic acid]	≤ 100	100 to 1000	> 10000	≤ 100	≤ 100	
Cn1cnc(-c2cc(C(=O)O)ccn2)c1-c1ccc2cc[nH]c2c1 [Example 22, 2-[5-(1H-indol-6-yl)-1-methyl-1H-imidazol-4-yl]pyridine-4-carboxylic acid]	≤ 100	100 to 1000	> 10000	≤ 100	≤ 100	
CN(C)CCn1cnc(-c2cc(C(=O)O)ccn2)c1 [Example 40, 2-{1-[2-(dimethylamino)ethyl]-1H-imidazol-4-yl}pyridine-4-carboxylic acid]	≤ 100	≤ 100	1000 to 10000	≤ 100		
O=C(O)c1ccnc(-c2cn(CCN3CCCc4cc(Cl)ccc43)cn2)c1 [Example 89, 2-[1-[2-(6-chloro-3,4-dihydro-2H-quinolin-1-yl)ethyl]imidazol-4-yl]pyridine-4-carboxylic acid]	≤ 100	100 to 1000		≤ 100	≤ 100	100 to 1000
O=C(O)c1ccnc(-c2cn(CCN3CCCc4cc(F)ccc43)cn2)c1 [Example 90, 2-[1-[2-(6-fluoro-3,4-dihydro-2H-quinolin-1-yl)ethyl]imidazol-4-yl]pyridine-4-carboxylic acid]	≤ 100	100 to 1000		≤ 100	≤ 100	≤ 100
O=C(O)c1ccnc(-c2cn(CCN3CCc4cc(F)ccc43)cn2)c1 [Example 91, 2-[1-[2-(5-fluoro-2,3-dihydroindol-1-yl)ethyl]imidazol-4-yl]pyridine-4-carboxylic acid]	≤ 100	100 to 1000		≤ 100	100 to 1000	100 to 1000
CCC(c1ccccc1)n1cnc(-c2cc(C(=O)O)ccn2)c1 (centres unmarked) [Example 107, 2-[1-(1-phenylpropyl)imidazol-4-yl]pyridine-4-carboxylic acid]	≤ 100	100 to 1000		≤ 100	≤ 100	≤ 100
CC(C)C(c1ccccc1)n1cnc(-c2cc(C(=O)O)ccn2)c1 (centres unmarked) [Example 108, 2-[1-(2-methyl-1-phenylpropyl)imidazol-4-yl]pyridine-4-carboxylic acid]	≤ 100	100 to 1000		≤ 100	≤ 100	100 to 1000
O=C(O)c1ccnc(-c2cn(C3CCc4ccc(F)cc43)cn2)c1 (centres unmarked) [Example 109, 2-[1-(6-fluoro-2,3-dihydro-1H-inden-1-yl)imidazol-4-yl]pyridine-4-carboxylic acid]	≤ 100	1000 to 10000		≤ 100	≤ 100	100 to 1000
O=C(O)c1ccnc(-c2cn(C3CCc4c(F)cccc43)cn2)c1 (centres unmarked) [Example 110, 2-[1-(4-fluoro-2,3-dihydro-1H-inden-1-yl)imidazol-4-yl]pyridine-4-carboxylic acid]	≤ 100	100 to 1000		≤ 100	≤ 100	100 to 1000
O=C(O)c1ccnc(-c2cn(Cc3cccc(-c4ccccc4)c3)cn2)c1 [Example 111, 2-[1-[(3-phenylphenyl)methyl]imidazol-4-yl]pyridine-4-carboxylic acid]	≤ 100	1000 to 10000		≤ 100	≤ 100	1000 to 10000
O=C(O)c1ccnc(-c2cn(CCc3cccc4ccccc34)cn2)c1 [Example 112, 2-[1-(2-naphthalen-1-ylethyl)imidazol-4-yl]pyridine-4-carboxylic acid]	≤ 100	100 to 1000		≤ 100	≤ 100	100 to 1000
O=C(O)c1ccnc(-c2cn(CC3CCCc4ccccc43)cn2)c1 (centres unmarked) [Example 116, 2-[1-(1,2,3,4-tetrahydronaphthalen-1-ylmethyl)imidazol-4-yl]pyridine-4-carboxylic acid]	≤ 100	100 to 1000		≤ 100	≤ 100	≤ 100
Cn1cnc(-c2cc(C(=O)O)ccn2)c1-c1ccc(F)cc1OCC1CC1 [Example 120, 2-[5-[2-(cyclopropylmethoxy)-4-fluorophenyl]-1-methylimidazol-4-yl]pyridine-4-carboxylic acid]	100 to 1000	1000 to 10000		≤ 100	≤ 100	> 10000
Clc1ccccc1Cn1cnc(-c2cc(-c3nn[nH]n3)ccn2)c1 [Example 129, 2-[1-[(2-chlorophenyl)methyl]imidazol-4-yl]-4-(2H-tetrazol-5-yl)pyridine]	100 to 1000	1000 to 10000		≤ 100	≤ 100	> 10000
FC(F)(F)c1ccccc1CCn1cnc(-c2cc(-c3nn[nH]n3)ccn2)c1 [Example 140, 4-(2H-tetrazol-5-yl)-2-[1-[2-[2-(trifluoromethyl)phenyl]ethyl]imidazol-4-yl]pyridine]	100 to 1000	1000 to 10000		≤ 100	≤ 100	> 10000
Clc1ccccc1CCn1cnc(-c2cc(-c3nn[nH]n3)ccn2)c1 [Example 141, 2-[1-[2-(2-chlorophenyl)ethyl]imidazol-4-yl]-4-(2H-tetrazol-5-yl)pyridine]	100 to 1000	1000 to 10000		100 to 1000	≤ 100	> 10000
CCC(c1ccccc1)n1cnc(-c2cc(-c3nn[nH]n3)ccn2)c1 (centres unmarked) [Example 144, 2-[1-(1-phenylpropyl)imidazol-4-yl]-4-(2H-tetrazol-5-yl)pyridine]	100 to 1000	1000 to 10000		≤ 100	≤ 100	> 10000
CC(C)C(c1ccccc1)n1cnc(-c2cc(-c3nn[nH]n3)ccn2)c1 (centres unmarked) [Example 145, 2-[1-(2-methyl-1-phenylpropyl)imidazol-4-yl]-4-(2H-tetrazol-5-yl)pyridine]	100 to 1000	1000 to 10000		100 to 1000	≤ 100	> 10000
Cn1cnc(-c2cc(-c3nn[nH]n3)ccn2)c1-c1ccc(F)cc1OCC1CC1 [Example 150, 2-[5-[2-(cyclopropylmethoxy)-4-fluorophenyl]-1-methylimidazol-4-yl]-4-(2H-tetrazol-5-yl)pyridine]	100 to 1000	1000 to 10000		≤ 100	≤ 100	> 10000
FC(F)(F)c1cccc(Cn2cnc(-c3cc(-c4nn[nH]n4)ccn3)c2)c1Cl [Example 154, 2-[1-[[2-chloro-3-(trifluoromethyl)phenyl]methyl]imidazol-4-yl]-4-(2H-tetrazol-5-yl)pyridine]	100 to 1000	1000 to 10000		≤ 100	≤ 100	> 10000
